Measured values published in PMC6437697 (Journal of Medicinal Chemistry, 2019).

Tests used:
Experiment in all cases: KINOMEscan
Assay type in all cases: binding
Details in all cases: read-out: % control activity remaining
[1] = molecular target: T1, EGFR(L858R,T790M) (Homo sapiens, UniProt P00533, L858R/T790M)
T1 construct: purchased Eurofins DiscoverX KINOMEscan

[2] = molecular target: T2, SLK (Homo sapiens, UniProt Q9H2G2)
T2 construct: purchased Eurofins DiscoverX KINOMEscan

[3] = molecular target: T3, PKN1 (Homo sapiens, UniProt Q16512)
T3 construct: purchased Eurofins DiscoverX KINOMEscan

[4] = molecular target: T4, CSNK2A1 (Homo sapiens, UniProt P68400)
T4 construct: purchased Eurofins DiscoverX KINOMEscan

[5] = molecular target: T5, MYO3B (Homo sapiens, UniProt Q8WXR4)
T5 construct: purchased Eurofins DiscoverX KINOMEscan
T5 sequence (Q8WXR4 1-1341): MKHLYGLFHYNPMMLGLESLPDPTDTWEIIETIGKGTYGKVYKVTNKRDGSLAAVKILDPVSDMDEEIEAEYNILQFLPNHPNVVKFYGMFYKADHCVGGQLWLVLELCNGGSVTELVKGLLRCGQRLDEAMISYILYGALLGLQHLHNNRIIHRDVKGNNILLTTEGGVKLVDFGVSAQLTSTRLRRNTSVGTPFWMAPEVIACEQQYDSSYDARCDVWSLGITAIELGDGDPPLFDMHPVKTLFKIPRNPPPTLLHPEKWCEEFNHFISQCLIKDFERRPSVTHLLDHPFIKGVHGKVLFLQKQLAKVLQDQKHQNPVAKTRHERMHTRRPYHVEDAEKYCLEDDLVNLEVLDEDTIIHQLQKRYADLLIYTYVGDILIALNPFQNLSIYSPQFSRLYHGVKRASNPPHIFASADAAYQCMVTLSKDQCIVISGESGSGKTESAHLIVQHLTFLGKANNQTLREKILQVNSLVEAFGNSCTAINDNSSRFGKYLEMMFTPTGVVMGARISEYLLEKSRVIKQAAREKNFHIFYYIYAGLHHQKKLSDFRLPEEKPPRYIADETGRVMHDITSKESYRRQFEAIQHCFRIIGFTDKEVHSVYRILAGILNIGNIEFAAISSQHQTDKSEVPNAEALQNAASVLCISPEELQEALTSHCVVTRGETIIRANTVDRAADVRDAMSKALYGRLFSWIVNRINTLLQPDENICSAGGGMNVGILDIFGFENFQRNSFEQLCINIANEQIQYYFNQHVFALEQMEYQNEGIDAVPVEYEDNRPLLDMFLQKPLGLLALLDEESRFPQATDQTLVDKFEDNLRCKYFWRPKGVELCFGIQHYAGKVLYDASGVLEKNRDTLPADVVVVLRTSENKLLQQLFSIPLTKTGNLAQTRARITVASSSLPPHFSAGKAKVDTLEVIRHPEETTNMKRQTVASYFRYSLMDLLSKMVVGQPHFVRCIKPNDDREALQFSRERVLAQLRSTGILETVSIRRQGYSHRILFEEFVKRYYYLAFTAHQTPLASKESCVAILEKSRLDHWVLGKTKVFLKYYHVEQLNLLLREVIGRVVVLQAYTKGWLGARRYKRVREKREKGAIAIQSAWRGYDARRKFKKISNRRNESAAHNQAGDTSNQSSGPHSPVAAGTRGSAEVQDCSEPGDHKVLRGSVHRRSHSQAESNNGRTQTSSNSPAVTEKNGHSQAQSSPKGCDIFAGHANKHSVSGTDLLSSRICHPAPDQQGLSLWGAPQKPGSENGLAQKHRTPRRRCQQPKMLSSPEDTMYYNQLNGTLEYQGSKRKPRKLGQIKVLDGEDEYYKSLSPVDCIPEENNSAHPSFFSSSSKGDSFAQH

[6] = molecular target: T6, NIK (Homo sapiens, UniProt Q99558)
T6 construct: purchased Eurofins DiscoverX KINOMEscan

[7] = molecular target: T7, CAMKK1 (Homo sapiens, UniProt Q8N5S9)
T7 construct: purchased Eurofins DiscoverX KINOMEscan

[8] = molecular target: T8, QSK (Homo sapiens, UniProt Q9Y2K2)
T8 construct: purchased Eurofins DiscoverX KINOMEscan

[9] = molecular target: T9, CDC2L1 (Homo sapiens, UniProt P21127)
T9 construct: purchased Eurofins DiscoverX KINOMEscan

[10] = molecular target: T10, ERK5 (Homo sapiens, UniProt Q13164)
T10 construct: purchased Eurofins DiscoverX KINOMEscan

[11] = molecular target: T11, TXK (Homo sapiens, UniProt P42681)
T11 construct: purchased Eurofins DiscoverX KINOMEscan
T11 sequence (P42681 1-527): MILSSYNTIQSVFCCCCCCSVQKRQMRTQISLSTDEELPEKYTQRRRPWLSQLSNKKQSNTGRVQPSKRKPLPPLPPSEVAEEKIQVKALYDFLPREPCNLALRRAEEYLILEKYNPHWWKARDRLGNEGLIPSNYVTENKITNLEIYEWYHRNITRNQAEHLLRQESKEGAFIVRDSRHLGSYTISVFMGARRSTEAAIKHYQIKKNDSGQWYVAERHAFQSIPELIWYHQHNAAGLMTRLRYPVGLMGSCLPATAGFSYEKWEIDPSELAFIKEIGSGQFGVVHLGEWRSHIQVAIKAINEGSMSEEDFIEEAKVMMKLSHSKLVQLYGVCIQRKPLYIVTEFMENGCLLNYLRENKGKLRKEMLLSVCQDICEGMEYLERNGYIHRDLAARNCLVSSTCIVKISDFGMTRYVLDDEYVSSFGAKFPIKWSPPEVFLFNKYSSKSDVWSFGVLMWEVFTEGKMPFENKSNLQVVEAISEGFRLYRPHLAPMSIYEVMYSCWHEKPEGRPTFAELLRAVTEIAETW

[12] = molecular target: T12, CLK2 (Homo sapiens, UniProt P49760)
T12 construct: purchased Eurofins DiscoverX KINOMEscan
T12 sequence (P49760 whole entry): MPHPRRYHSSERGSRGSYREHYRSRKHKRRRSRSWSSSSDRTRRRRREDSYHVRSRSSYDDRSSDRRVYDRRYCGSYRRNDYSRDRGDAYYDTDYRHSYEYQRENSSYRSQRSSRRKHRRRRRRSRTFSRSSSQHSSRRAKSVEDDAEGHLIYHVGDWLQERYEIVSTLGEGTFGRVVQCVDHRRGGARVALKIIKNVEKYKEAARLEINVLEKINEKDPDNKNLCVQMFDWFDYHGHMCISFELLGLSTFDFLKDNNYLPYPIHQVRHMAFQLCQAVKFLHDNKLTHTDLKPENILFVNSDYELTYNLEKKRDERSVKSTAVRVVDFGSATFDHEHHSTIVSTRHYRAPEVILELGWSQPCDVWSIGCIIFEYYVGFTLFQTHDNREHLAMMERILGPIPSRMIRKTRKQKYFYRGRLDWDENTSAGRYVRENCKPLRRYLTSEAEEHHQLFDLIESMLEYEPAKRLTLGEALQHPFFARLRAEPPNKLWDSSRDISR

T7 sequence (Q8N5S9 whole entry): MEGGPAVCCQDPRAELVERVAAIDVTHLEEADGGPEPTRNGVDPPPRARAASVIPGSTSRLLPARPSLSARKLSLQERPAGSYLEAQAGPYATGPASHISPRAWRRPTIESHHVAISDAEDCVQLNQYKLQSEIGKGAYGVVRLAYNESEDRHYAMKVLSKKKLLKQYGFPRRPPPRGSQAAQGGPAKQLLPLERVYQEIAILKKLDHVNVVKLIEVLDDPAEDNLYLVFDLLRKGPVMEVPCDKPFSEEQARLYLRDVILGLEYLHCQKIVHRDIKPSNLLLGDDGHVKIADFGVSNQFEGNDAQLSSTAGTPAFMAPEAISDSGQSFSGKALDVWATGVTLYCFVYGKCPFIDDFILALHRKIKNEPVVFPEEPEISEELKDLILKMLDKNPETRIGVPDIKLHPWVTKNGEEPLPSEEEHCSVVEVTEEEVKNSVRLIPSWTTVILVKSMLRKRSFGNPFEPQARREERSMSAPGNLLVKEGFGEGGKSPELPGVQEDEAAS
T10 sequence (Q13164 whole entry): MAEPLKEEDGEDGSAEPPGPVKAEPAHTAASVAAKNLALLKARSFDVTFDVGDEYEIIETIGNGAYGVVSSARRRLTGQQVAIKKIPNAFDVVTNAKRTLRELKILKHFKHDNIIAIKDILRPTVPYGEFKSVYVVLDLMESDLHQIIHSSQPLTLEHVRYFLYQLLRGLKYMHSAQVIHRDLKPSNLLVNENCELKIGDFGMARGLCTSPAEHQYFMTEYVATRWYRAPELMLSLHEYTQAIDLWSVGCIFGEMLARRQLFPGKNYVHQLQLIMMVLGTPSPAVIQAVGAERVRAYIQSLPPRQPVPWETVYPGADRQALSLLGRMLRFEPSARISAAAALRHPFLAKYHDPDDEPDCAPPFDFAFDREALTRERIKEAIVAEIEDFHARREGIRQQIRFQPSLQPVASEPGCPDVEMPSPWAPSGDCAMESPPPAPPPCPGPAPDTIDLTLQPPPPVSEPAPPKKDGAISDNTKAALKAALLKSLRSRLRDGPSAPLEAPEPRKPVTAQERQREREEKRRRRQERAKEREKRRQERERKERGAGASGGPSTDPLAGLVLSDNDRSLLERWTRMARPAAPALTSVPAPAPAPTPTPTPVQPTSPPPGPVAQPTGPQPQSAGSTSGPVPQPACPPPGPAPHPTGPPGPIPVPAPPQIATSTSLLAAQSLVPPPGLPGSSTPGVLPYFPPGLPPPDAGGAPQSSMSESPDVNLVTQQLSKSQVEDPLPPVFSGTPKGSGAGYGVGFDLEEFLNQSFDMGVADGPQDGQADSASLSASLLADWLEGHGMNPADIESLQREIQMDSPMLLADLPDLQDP
T9 sequence (P21127 whole entry): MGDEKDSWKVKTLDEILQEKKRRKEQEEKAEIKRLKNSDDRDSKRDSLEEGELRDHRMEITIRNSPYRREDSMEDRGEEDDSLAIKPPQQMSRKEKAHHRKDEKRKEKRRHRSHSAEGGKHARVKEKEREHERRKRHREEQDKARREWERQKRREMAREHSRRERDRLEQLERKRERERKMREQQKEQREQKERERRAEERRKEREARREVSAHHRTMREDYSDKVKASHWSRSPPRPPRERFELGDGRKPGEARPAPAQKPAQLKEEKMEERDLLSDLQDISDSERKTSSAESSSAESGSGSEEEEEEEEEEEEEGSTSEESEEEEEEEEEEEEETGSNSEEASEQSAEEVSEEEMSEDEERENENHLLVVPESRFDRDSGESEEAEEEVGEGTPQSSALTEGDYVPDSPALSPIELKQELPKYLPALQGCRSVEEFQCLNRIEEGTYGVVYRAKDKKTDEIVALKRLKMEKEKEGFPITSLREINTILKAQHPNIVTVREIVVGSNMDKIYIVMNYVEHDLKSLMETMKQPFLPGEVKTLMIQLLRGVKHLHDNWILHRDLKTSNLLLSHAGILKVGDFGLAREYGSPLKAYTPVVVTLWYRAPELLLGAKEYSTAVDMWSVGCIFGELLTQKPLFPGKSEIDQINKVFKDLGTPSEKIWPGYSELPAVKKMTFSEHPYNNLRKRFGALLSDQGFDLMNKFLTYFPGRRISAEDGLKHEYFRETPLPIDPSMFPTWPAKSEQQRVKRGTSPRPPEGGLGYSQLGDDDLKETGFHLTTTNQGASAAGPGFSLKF
T3 sequence (Q16512 whole entry): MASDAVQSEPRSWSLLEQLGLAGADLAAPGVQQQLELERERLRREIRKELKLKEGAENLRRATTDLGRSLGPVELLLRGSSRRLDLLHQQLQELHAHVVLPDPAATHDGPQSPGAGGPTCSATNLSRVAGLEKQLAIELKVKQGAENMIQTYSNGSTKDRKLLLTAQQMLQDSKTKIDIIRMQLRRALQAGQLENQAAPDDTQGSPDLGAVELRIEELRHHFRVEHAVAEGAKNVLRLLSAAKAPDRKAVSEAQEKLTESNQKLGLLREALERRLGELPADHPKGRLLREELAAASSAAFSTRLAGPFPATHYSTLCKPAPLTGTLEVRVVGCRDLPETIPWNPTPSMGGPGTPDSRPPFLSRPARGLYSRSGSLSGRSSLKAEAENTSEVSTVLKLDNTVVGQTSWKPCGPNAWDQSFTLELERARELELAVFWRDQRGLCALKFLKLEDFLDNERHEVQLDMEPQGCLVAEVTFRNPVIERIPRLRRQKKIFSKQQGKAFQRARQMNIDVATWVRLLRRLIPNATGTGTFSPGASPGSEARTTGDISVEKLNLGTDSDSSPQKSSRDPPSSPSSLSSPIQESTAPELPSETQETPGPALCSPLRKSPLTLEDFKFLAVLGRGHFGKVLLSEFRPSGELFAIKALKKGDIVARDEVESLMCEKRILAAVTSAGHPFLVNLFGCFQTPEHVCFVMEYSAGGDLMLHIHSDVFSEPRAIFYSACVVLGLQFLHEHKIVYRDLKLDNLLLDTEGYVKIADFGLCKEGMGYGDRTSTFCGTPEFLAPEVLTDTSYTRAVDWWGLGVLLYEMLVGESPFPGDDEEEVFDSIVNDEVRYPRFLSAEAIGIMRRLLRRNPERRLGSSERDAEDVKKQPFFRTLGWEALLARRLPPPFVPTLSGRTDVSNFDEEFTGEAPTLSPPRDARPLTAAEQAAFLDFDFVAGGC
T8 sequence (Q9Y2K2 whole entry): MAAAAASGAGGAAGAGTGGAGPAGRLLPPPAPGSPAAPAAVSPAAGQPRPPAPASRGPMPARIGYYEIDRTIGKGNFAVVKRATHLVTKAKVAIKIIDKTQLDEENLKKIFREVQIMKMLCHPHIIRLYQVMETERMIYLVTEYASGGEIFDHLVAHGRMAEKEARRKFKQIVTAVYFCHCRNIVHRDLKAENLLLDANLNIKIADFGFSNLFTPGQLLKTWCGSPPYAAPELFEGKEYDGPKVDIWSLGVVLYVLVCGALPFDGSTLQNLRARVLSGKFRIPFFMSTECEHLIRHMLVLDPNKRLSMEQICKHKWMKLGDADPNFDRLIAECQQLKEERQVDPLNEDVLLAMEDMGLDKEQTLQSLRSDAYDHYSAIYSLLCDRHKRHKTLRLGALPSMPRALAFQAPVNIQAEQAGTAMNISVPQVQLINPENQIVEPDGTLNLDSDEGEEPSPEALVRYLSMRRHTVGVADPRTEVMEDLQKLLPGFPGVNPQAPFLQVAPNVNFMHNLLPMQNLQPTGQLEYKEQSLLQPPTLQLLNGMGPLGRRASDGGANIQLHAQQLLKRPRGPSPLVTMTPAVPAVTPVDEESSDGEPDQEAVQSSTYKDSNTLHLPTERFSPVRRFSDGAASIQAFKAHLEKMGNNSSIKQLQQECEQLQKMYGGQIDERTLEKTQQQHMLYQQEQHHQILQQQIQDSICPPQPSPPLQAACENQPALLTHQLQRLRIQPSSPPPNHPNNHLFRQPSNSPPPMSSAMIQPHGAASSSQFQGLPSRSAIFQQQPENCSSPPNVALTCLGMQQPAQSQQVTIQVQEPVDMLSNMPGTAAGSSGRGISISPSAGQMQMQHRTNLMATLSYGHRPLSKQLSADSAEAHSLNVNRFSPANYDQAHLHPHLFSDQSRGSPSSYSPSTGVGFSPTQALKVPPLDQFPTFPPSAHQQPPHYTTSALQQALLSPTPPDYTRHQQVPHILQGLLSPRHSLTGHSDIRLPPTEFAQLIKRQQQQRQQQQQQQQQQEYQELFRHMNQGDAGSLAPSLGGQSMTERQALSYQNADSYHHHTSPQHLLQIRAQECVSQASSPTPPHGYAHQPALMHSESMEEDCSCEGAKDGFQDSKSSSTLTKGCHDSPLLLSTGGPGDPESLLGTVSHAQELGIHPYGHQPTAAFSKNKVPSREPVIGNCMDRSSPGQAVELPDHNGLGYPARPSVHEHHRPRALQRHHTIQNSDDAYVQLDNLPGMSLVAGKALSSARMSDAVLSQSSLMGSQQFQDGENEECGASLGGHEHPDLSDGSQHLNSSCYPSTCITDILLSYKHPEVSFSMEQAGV

Clc1cc(NCC2CC2)c2ncc(-c3ccc4[nH]ncc4c3)n2n1 [compound 2, 6-Chloro-N-(cyclopropylmethyl)-3-(1H-indazol-5-yl)imidazo[1,2-b]pyridazin-8-amine]
remaining binding at 1 µM [1]: 82%
remaining binding at 1 µM [2]: 100%
remaining binding at 1 µM [3]: 100%
remaining binding at 1 µM [4]: 85%
remaining binding at 1 µM [5]: 82%
remaining binding at 1 µM [6]: 90%
remaining binding at 1 µM [7]: 94%
remaining binding at 1 µM [8]: 78%
remaining binding at 1 µM [9]: 100%
remaining binding at 1 µM [10]: 100%
remaining binding at 1 µM [11]: 85%
remaining binding at 1 µM [12]: 9.6%

O=C(CN1CCOCC1)N[C@H]1CC[C@H](Nc2cc(Cl)nn3c(-c4ccc5[nH]ncc5c4)cnc23)CC1 [compound 26]
remaining binding at 1 µM [1]: 90%
remaining binding at 1 µM [2]: 98%
remaining binding at 1 µM [3]: 71%
remaining binding at 1 µM [4]: 75%
remaining binding at 1 µM [5]: 92%
remaining binding at 1 µM [6]: 78%
remaining binding at 1 µM [7]: 52%
remaining binding at 1 µM [8]: 82%
remaining binding at 1 µM [9]: 100%
remaining binding at 1 µM [10]: 98%
remaining binding at 1 µM [11]: 88%
remaining binding at 1 µM [12]: 4.2%

CN1CCC(CNc2cc(Cl)nn3c(-c4cc5nc(Nc6ccccc6)[nH]c5cc4F)cnc23)CC1 [compound 31, 6-Chloro-3-(6-fluoro-2-(phenylamino)-1H-benzo[d]imidazol-5-yl)-N-((1-methylpiperidin-4-yl)methyl)imidazo[1,2-b]pyridazin-8-amine]
remaining binding at 1 µM [1]: 100%
remaining binding at 1 µM [2]: 80%
remaining binding at 1 µM [3]: 91%
remaining binding at 1 µM [4]: 99%
remaining binding at 1 µM [5]: 73%
remaining binding at 1 µM [6]: 92%
remaining binding at 1 µM [7]: 98%
remaining binding at 1 µM [8]: 100%
remaining binding at 1 µM [9]: 92%
remaining binding at 1 µM [10]: 87%
remaining binding at 1 µM [11]: 93%
remaining binding at 1 µM [12]: 79%
